Results reported in ChEMBL document CHEMBL1150518, “Balanced angiotensin II receptor antagonists. III. The effects of substitution at the imidazole 5-position” (Bioorg Med Chem Lett, 1994).

Assays:
Rattus norvegicus [1] = assay: Antihypertensive activity of compound was measured in renal hypertensive rat after iv administration; format: functional
Rattus norvegicus [2] = assay: Antihypertensive activity of compound was measured in renal hypertensive rat after oral administration; format: functional
[3] = target: T1, Type-1 angiotensin II receptor (Homo sapiens, UniProt P30556); assay: Binding affinity for Angiotensin II receptor, type 1
T1 sequence (P30556 whole entry): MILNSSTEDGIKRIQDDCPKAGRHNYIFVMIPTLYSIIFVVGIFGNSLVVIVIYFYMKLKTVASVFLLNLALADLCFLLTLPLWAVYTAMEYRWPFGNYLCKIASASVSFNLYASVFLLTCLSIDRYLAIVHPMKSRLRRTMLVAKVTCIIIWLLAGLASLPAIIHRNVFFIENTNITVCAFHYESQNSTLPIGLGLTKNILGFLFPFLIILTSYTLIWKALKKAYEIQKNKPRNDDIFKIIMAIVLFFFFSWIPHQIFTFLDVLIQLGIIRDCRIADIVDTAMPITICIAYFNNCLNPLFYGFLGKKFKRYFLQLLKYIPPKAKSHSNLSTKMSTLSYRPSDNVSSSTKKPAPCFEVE

[4] = target: T2, Type-2 angiotensin II receptor (Homo sapiens, UniProt P50052); assay: Binding affinity for angiotensin II AT-2 receptor
T2 sequence (P50052 whole entry): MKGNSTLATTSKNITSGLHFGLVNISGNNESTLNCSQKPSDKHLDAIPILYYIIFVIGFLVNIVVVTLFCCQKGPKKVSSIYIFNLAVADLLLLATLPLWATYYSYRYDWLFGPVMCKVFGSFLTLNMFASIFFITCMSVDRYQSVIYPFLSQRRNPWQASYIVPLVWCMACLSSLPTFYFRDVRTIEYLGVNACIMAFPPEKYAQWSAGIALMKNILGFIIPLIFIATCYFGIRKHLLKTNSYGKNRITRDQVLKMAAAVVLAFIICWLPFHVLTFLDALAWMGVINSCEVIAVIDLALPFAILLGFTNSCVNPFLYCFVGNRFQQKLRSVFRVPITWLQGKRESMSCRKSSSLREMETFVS

SMILES | IC50 [3] [nM] | IC50 [4] [nM] | ED30 (Rattus norvegicus [1]) [mg/kg] | ED30 (Rattus norvegicus [2]) [mg/kg]
CCCc1nc(CC)c(C(=O)O)n1Cc1ccc(-c2ccccc2-c2nnn[nH]2)cc1 | 6 | > 1000 | 0.005 | 0.03
CCCc1nc(CC)c(C(=O)OCc2ccccc2C(=O)c2ccccc2)n1Cc1ccc(-c2ccccc2S(=O)(=O)NC(=O)OCCC(C)C)cc1F | 0.5 | 0.7 | 0.05 | 0.9
CCCc1nc(CC)c(C(=O)OCc2ccccc2Sc2ccccc2)n1Cc1ccc(-c2ccccc2S(=O)(=O)NC(=O)OCCC(C)C)cc1F | 1 | 2 |  | 
CCCc1nc(CC)c(C(=O)NCc2ccccc2[S+]([O-])c2ccccc2)n1Cc1ccc(-c2ccccc2S(=O)(=O)NC(=O)OCCC(C)C)cc1F (centres undefined) | 0.6 | 5 |  | 
CCCc1nc(CC)c(C(=O)OCc2ccccc2-c2cccs2)n1Cc1ccc(-c2ccccc2S(=O)(=O)NC(=O)OCCC(C)C)cc1F | 0.8 | 3 |  | 

These reach a lower IC50 [3]. Values come first.

IC50 [3] [nM] | IC50 [4] [nM] | SMILES | ED30 (Rattus norvegicus [1]) [mg/kg] | ED30 (Rattus norvegicus [2]) [mg/kg]
0.28 | 1.6 | CCCOC(=O)NS(=O)(=O)c1ccccc1-c1ccc(Cn2c(CCC)nc(CC)c2C(=O)OCc2ccccc2C(=O)c2ccccc2)c(F)c1 | 0.08 | 0.7
0.2 | 1 | CCCc1nc(CC)c(C(=O)OCCC[S+]([O-])c2ccccc2)n1Cc1ccc(-c2ccccc2S(=O)(=O)NC(=O)OCCC(C)C)cc1F (centres undefined) |  | 
0.2 | 5 | CCCCN(Cc1ccccc1)C(=O)CCCOC(=O)c1c(CC)nc(CCC)n1Cc1ccc(-c2ccccc2S(=O)(=O)NC(=O)OCCC(C)C)cc1F |  | 
0.1 | 3 | CCCc1nc(CC)c(C(=O)OCCCN2C(=O)c3ccccc3C2=O)n1Cc1ccc(-c2ccccc2S(=O)(=O)NC(=O)OCCC(C)C)cc1F |  | 
